Reference: ChEMBL document CHEMBL1123898, “Antitumor imidazotetrazines. 14. Synthesis and antitumor activity of 6- and 8-substituted imidazo[5,1-d]-1,2,3,5-tetrazinones and 8-substituted pyrazolo[5,1-d]-1,2,3,5-tetrazinones” (1987)

Columns and labels:
L1210 [1] = test: Antitumor activity was assessed against L1210 tumors in B6D2F1 mouse by inoculation of 10e5 tumor cells through intraperitoneal route and mean death of animals (treated/control) was reported at 200 mg/kg peroral dose; format: functional; conditions: route oral
[2] = Antitumor activity was assessed against TLX5 tumors in CBA/CA mouse by inoculation of 2 x 10e5 tumor cells through subcutaneous route and mean death of animals (treated/control) was reported at 160 mg/kg iv dose; format: functional
L1210 [3] = test: Antitumor activity was assessed against L1210 tumors in B6D2F1 mouse by inoculation of 10e5 tumor cells through intraperitoneal route and mean death of animals (treated/control) was reported at 50 mg/kg peroral dose; format: functional; conditions: route oral
[4] = Antitumor activity was assessed against TLX5 tumors in CBA/CA mouse by inoculation of 2 x 10e5 tumor cells through sc route and number of Survivors to duration was reported at 320 mg/kg iv dose; 1/5; format: functional
L1210 [5] = test: Antitumor activity was assessed against L1210 tumors in B6D2F1 mouse by inoculation of 10e5 tumor cells through intraperitoneal route and mean death of animals (treated/control) was reported at 100 mg/kg peroral dose; format: functional; conditions: route oral
[6] = Antitumor activity was assessed against TLX5 tumors in CBA/CA mouse by inoculation of 2 x 10e5 tumor cells through subcutaneous route and mean death of animals (treated/control) was reported at 640 mg/kg iv dose; format: functional
[7] = Antitumor activity was assessed against TLX5 tumors in CBA/CA mouse by inoculation of 2 x 10e5 tumor cells through subcutaneous route and mean death of animals (treated/control) was reported at 320 mg/kg iv dose; format: functional
[8] = Antitumor activity was assessed against TLX5 tumors in CBA/CA mouse by inoculation of 2 x 10e5 tumor cells through subcutaneous route and mean death of animals (treated/control) was reported at 40 mg/kg iv dose; format: functional
[9] = Antitumor activity was assessed against TLX5 tumors in CBA/CA mouse by inoculation of 2 x 10e5 tumor cells through subcutaneous route and mean death of animals (treated/control) was reported at 80 mg/kg iv dose; format: functional
[10] = Antitumor activity was assessed against TLX5 tumors in CBA/CA mouse by inoculation of 2 x 10e5 tumor cells through subcutaneous route and mean death of animals (treated/control) was reported at 40 mg/kg dose; format: functional
[11] = Antitumor activity was assessed against TLX5 tumors in CBA/CA mouse by inoculation of 2 x 10e5 tumor cells through subcutaneous route and number of Survivors to duration was reported at 80 mg/kg iv dose; 3/5
L1210 [12] = test: Antitumor activity was assessed against L1210 tumors in B6D2F1 mouse by inoculation of 10e5 tumor cells through intravenous route and mean death of animals (treated/control) was reported at 10 mg/kg peroral dose; format: functional; conditions: route oral
L1210 [13] = test: Antitumor activity was assessed against L1210 tumors in B6D2F1 mouse by inoculation of 10e5 tumor cells through intraperitoneal route and number of Survivors to duration was reported at 20 mg/kg peroral dose; 8/10; conditions: route oral
[14] = Antitumor activity was assessed against TLX5 tumors in CBA/CA mouse by inoculation of 2 x 10e5 tumor cells through subcutaneous route and mean death of animals (treated/control) was reported at 80 mg/kg dose; format: functional
[15] = Antitumor activity was assessed against TLX5 tumors in CBA/CA mouse by inoculation of 2 x 10e5 tumor cells through subcutaneous route and mean death of animals (treated/control) was reported at 160 mg/kg dose; format: functional
L1210 [16] = test: Antitumor activity was assessed against L1210 tumors in B6D2F1 mouse by inoculation of 10e5 tumor cells through intraperitoneal route and number of Survivors to duration was reported at 40 mg/kg peroral dose; 4/10; conditions: route oral
L1210 [17] = test: Antitumor activity was assessed against L1210 tumors in B6D2F1 mouse by inoculation of 10e5 tumor cells through intravenous route and mean death of animals (treated/control) was reported at 40 mg/kg peroral dose; format: functional; conditions: route oral
L1210 [18] = test: Antitumor activity was assessed against L1210 tumors in B6D2F1 mouse by inoculation of 10e5 tumor cells through intravenous route and mean death of animals (treated/control) was reported at 20 mg/kg peroral dose; format: functional; conditions: route oral
[19] = Antitumor activity was assessed against TLX5 tumors in CBA/CA mouse by inoculation of 2 x 10e5 tumor cells through subcutaneous route and number of Survivors to duration was reported at 40 mg/kg iv dose; 5/5
[20] = Antitumor activity was assessed against TLX5 tumors in CBA/CA mouse by inoculation of 2 x 10e5 tumor cells through subcutaneous route and mean death of animals (treated/control) was reported at 20 mg/kg dose; format: functional
L1210 [21] = test: Antitumor activity was assessed against L1210 tumors in B6D2F1 mouse by inoculation of 10e5 tumor cells through iv route and mean death of animals (treated/control) was reported at 100 mg/kg po dose; format: functional
L1210 [22] = test: Antitumor activity was assessed against L1210 tumors in B6D2F1 mouse by inoculation of 10e5 tumor cells through iv route and mean death of animals (treated/control) was reported at 200 mg/kg po dose; format: functional
L1210 [23] = test: Antitumor activity was assessed against L1210 tumors in B6D2F1 mouse by inoculation of 10e5 tumor cells through iv route and mean death of animals (treated/control) was reported at 50 mg/kg po dose; format: functional
L1210 [24] = test: Antitumor activity was assessed against L1210 tumors in B6D2F1 mouse by inoculation of 10e5 tumor cells through iv route and number of survivors to duration was reported at 200 mg/kg po dose; 2/7; format: functional

For `O=C(c1ncn2c(=O)n(CCCl)nnc12)N1CCCCC1`, the T/C (L1210 [1]) was 171%, the T/C [2] was 120% and the T/C (L1210 [3]) was 100%. For the same compound, the Survivors [4] was 1, the T/C (L1210 [5]) was 108% and the T/C [6] was 25%. It also gave a T/C [7] of over 234%, a T/C [8] of 98% and a T/C [9] of 102%.

For `CN(C)C(=O)c1ncn2c(=O)n(CCCl)nnc12`, the T/C [10] was over 508%, the Survivors [11] was 3 and the T/C (L1210 [12]) was 197%. For the same compound, the Survivors (L1210 [13]) was 8, the T/C [14] was over 358% and the T/C [15] was 68%. The Survivors (L1210 [16]) was 4, the T/C (L1210 [17]) was over 235% and the T/C (L1210 [18]) was over 290%. It also gave a Survivors [19] of 5 and a T/C [20] of 161%.

Compound `CCCc1nc(C(N)=O)c2nnn(CCCl)c(=O)n12` has a T/C (L1210 [21]) of 186%, a T/C (L1210 [22]) of over 295% and a T/C (L1210 [23]) of 151%. For the same compound, the Survivors (L1210 [24]) was 2.
